The numbers were not newly measured in publication PMC7395068, “The evolution of strategies to minimise the risk of human drug-induced liver injury (DILI) in drug discovery and development” (Archives of Toxicology, 2020), which cites them from elsewhere.

Read-outs that look alike come from different tables or passages of the source.

For data set [1] the following is noted: cited from earlier work.
For data set [2], the system named is HepG2 cells. The following applies: cited from earlier work.
The conditions of data set [3]: ref Chen 2016; cited from earlier work.
Data set [4] concerns THLE or HepG2 cells, isolated mitochondria, BSEP. Conditions: In vitro Assay; ref Aleo 2019; cited from earlier work.
The next data set deals with human hepatocytes. Conditions: In vitro Assay; ref Xu 2008; cited from earlier work.
Data set [5] relates to HepG2 cells. Conditions: In vitro Assay; ref O'Brien 2006; cited from earlier work.
Data set [6] has as its system HepG2 cells. Conditions: In vitro Assay; ref Persson 2013; cited from earlier work.
Data set [7] deals with HepG2 cells, primary human hepatocytes. Conditions: In vitro Assay; ref Garside 2014; cited from earlier work.
For data set [8] the following is noted: ref Chen 2011; cited from earlier work.
The subject of data set [9] is HepG2 C3A spheroid, BSEP, Glu/Gal in HepG2 cells, bioactivation. The following applies: In vitro Assay; ref Williams 2019; cited from earlier work.
For a further data set, the system named is hLiMTs. Conditions: In vitro Assay; ref Proctor 2017; cited from earlier work.
A further data set deals with rBsep. Conditions: In vitro Assay; ref Dawson 2012; cited from earlier work.
Data set [10] concerns THLE-Null and THLE-3A4 cells. The following applies: In vitro Assay; ref Gustafsson 2014; cited from earlier work.
The next data set has as its system PHH. Conditions: In vitro Assay; ref Proctor 2017; cited from earlier work.
Another data set concerns PHH spheroids. Conditions: In vitro Assay; ref Vorrink 2018; cited from earlier work.
The mark [11] stands for this setting: In vitro Assay, ref Tolosa 2012.
Setting [12] is: assignment in Tolosa 2012, ref Tolosa 2012.

With `OC[C@H]1O[C@@H](O[C@H]2[C@H](O)[C@@H](O)C(O)O[C@@H]2CO)[C@H](O)[C@@H](O)[C@H]1O` (mixture of isomers) [lactose], the “In vivo DILI” value in data set [1] (in vivo) is given as “-VE”. The “Structural based (HCI)” value in the data set on HepG2 cells [2] is “-VE”.
Turning to `O=[N+]([O-])c1ccc(O)c([N+](=O)[O-])c1` [2,4 dinitrophenol], in data set [1] (ref Tolosa 2012), the “In vivo DILI” value is “+VE”. The “Structural based (HCI)” value with HepG2 cells [2] (setting [11]) was “+VE”.
For the molecule `C#C[C@]1(O)CC[C@H]2[C@@H]3CCc4cc(O)ccc4[C@H]3CC[C@@]21C` [17-a ethynylestradiol], the “Structural based (HCI)” value in the data set on HepG2 cells [2] was “+VE”.
With `NCC[C@H](O)C(=O)N[C@@H]1C[C@H](N)[C@@H](O[C@H]2O[C@H](CN)[C@@H](O)[C@H](O)[C@H]2O)[C@H](O)[C@H]1O[C@H]1O[C@H](CO)[C@@H](O)[C@H](N)[C@H]1O` [amikacin], in data set [3], the “DILI +VE (5-8), DILI -VE (-4)” value was “-VE” and the DILI severity category result is on record as “vNo-DILI-Concern”. The “In vivo DILI” value in data set [1] (ref Aleo 2019) was “-VE”. In [1] (ref Tolosa 2012), the “In vivo DILI” value was “+VE”. Further, in the data set on HepG2 cells [2] (setting [11]), the “Structural based (HCI)” value is recorded as “-VE”. For the same molecule, in data set [4], the “Partition Hybrid HRM Score” value is “+VE” and the “Ro2 Hybrid HRM Score” value is “+VE”.
Turning to `CN1[C@@H]2CC[C@H]1C[C@@H](OC(=O)C(CO)c1ccccc1)C2` (stereo partly shown) [atropine], the “Structural based (HCI)” value in the data set on HepG2 cells [2] is “+VE”.
Turning to `CC(C)(OO)c1ccccc1` [cumene hydroperoxide], the “In vivo DILI” value in [1] (ref Tolosa 2012) is recorded as “+VE”. Moreover, in the data set with HepG2 cells [2] (setting [11]), the “Structural based (HCI)” value is recorded as “+VE”.
As to `C[C@@H]1C[C@@H]([C@H](O)CC2CC(=O)NC(=O)C2)C(=O)[C@@H](C)C1` [cycloheximide], the “In vivo DILI” value in [1] (in vivo) was “+VE”. In the data set on HepG2 cells [2], the “Structural based (HCI)” value is “+VE”.
Regarding `NC(=O)OCC(COC(N)=O)c1ccccc1` [felbamate], the “Structural based (HCI)” value in the data set with human hepatocytes is “-VE”; in the data set with HepG2 cells [5] it was “+VE”; in the data set on HepG2 cells [6], “-VE”. Besides, in the data set on HepG2 cells [6], the Cluser analysis entry is “-VE”. In addition, the “Cluster 1-6 +VE Assay” value in data set [7] is given as “-VE”. Further, the “DILI +VE (5-8), DILI -VE (-4)” value in data set [3] is recorded as “+VE”. The DILI severity category entry in data set [3] was “vMost-DILI-Concern”. Moreover, the “DILI Score (FDA) (1-8)” value in data set [8] was 7. Also, the “In vivo DILI” value in [1] ([…]), in data set [1] (ref Dawson 2012), in data set [1] (ref Garside 2014), in data set [1] (ref Gustafsson 2014), in data set [1] (ref O'Brien 2006) and in data set [1] (ref Persson 2013) was “+VE” each time. Further, the “In vivo DILI” value in [1] (ref Proctor 2017), in data set [1] (ref Williams 2019) and in [1] (ref Xu 2008) was “+VE” each time. Also, the “Bayesian Machine Learning” value in [9] is “+VE”. In the data set on hLiMTs, the “hLiMTs ATP <100uM” value was “-VE”. Further, the “Inhibition of rBsep cutoff<1& cmax u>.2” value in the data set with rBsep is given as “-VE”. For the same molecule, in the data set on rBsep, the “Inhibition of rBsep cutoff<3” value was “-VE”. Further, the THLE-Null entry in data set [10] is listed as “-VE”. Besides, in data set [10], the THLE-Null/3A4 entry is “-VE”. For the same molecule, the “PHH ATP <100uM” value with PHH is on record as “-VE”.
For the molecule `N[C@H]1C(O)O[C@H](CO)[C@H](O)[C@@H]1O` (stereo partly shown) [galactosamine], the “In vivo DILI” value in data set [1] (ref O'Brien 2006) and in data set [1] (ref Tolosa 2012) was “+VE” in each case. In addition, in the data set with HepG2 cells [2] (setting [11]), the “Structural based (HCI)” value was “-VE”.
With `C[C@H](CCC(=O)NCC(=O)O)[C@H]1CC[C@H]2[C@@H]3[C@H](O)C[C@@H]4C[C@H](O)CC[C@]4(C)[C@H]3CC[C@]12C` [glycochenodeoxycholate], in data set [1] (setting [12]), the “In vivo DILI” value is reported as “+VE”. Also, in the data set on HepG2 cells [2] (HepG2 HCI, ref Tolosa 2012), the “Structural based (HCI), In vitro Assay” value is given as “+VE”.
`CCOC(=O)CC(SP(=S)(OC)OC)C(=O)OCC` (stereo not shown) [malathion]: the “In vivo DILI” value in data set [1] (setting [12]) was “+VE”. Besides, the “Structural based (HCI), In vitro Assay” value in the data set on HepG2 cells [2] (HepG2 HCI, ref Tolosa 2012) was “+VE”.
For the molecule `[Cl][Hg][Cl]` [mercury ii chloride], the “In vivo DILI” value in [1] (setting [12]) is given as “+VE”. The “Structural based (HCI), In vitro Assay” value with HepG2 cells [2] (HepG2 HCI, ref Tolosa 2012) is on record as “+VE”.
`CN(CCCC(=O)c1cccnc1)N=O` [nnk]: in [1] (setting [12]), the “In vivo DILI” value is on record as “+VE”. Further, in the data set on HepG2 cells [2] (HepG2 HCI, ref Tolosa 2012), the “Structural based (HCI), In vitro Assay” value is “+VE”.
Regarding `C[n+]1ccc(-c2cc[n+](C)cc2)cc1` [paraquat], in data set [1] (setting [12]), the “In vivo DILI” value is “+VE”. Besides, the “Structural based (HCI), In vitro Assay” value with HepG2 cells [2] (HepG2 HCI, ref Tolosa 2012) is reported as “+VE”.
In the case of `Fc1ccc([C@@H]2CCNC[C@H]2COc2ccc3c(c2)OCO3)cc1` [paroxetine], the “Structural based (HCI)” value with human hepatocytes and in the data set with HepG2 cells [5] was “-VE” throughout. In the data set on PHH spheroids, the “hLiMTs ATP <20 x Cmax” value is recorded as “-VE”. Besides, the “DILI +VE (5-8), DILI -VE (-4)” value in data set [3] was “+VE”. For the same molecule, the DILI severity category entry in data set [3] was “vLess-DILI-Concern”. Besides, in [8], the “DILI Score (FDA) (1-8)” value is reported as 8. For the same molecule, the “In vivo DILI” value is “-VE” in data set [1] ([…]); “+VE” in [1] (ref Aleo 2019); “+VE” in data set [1] (ref O'Brien 2006); “+VE” in data set [1] (ref Proctor 2017); “-VE” in [1] (ref Vorrink 2018); “+VE” in [1] (ref Williams 2019). Further, the “In vivo DILI” value in data set [1] (ref Xu 2008) is “-VE”. The “Bayesian Machine Learning” value in data set [9] is “+VE”. The “hLiMTs ATP <100uM” value in the data set with hLiMTs was “+VE (IC50 threshold of 100 µM)”. In addition, the “PHH ATP <100uM” value with PHH was “+VE (IC50 threshold of 100 µM)”. For the same molecule, in data set [4], the “Partition Hybrid HRM Score” value is on record as “+VE”. Moreover, the “Ro2 Hybrid HRM Score” value in [4] is given as “-VE”.
With `Oc1c(Cl)c(Cl)c(Cl)c(Cl)c1Cl` [pentachlorophenol], the “In vivo DILI” value in data set [1] (in vivo) is “+VE”. Further, the “Structural based (HCI)” value with HepG2 cells [2] is “+VE”.
Turning to `CCCCOCCOCCOCc1cc2c(cc1CCC)OCO2` [piperonyl butoxide], the “In vivo DILI” value in data set [1] (setting [12]) is “+VE”. Further, the “Structural based (HCI), In vitro Assay” value with HepG2 cells [2] (HepG2 HCI, ref Tolosa 2012) is “+VE”.
Turning to `CCCC(CCC)C(=O)O` [sodium valproate], the “Structural based (HCI), In vitro Assay” value in the data set with HepG2 cells [2] (HepG2 HCI, ref Tolosa 2012) is on record as “+VE”.
For the molecule `C[C@H](CCC(=O)NCCS(=O)(=O)O)[C@H]1CC[C@H]2[C@@H]3CC[C@@H]4C[C@H](O)CC[C@]4(C)[C@H]3CC[C@]12C` [taurolithocholate], in data set [1] (setting [12]), the “In vivo DILI” value is reported as “+VE”. The “Structural based (HCI), In vitro Assay” value in the data set with HepG2 cells [2] (HepG2 HCI, ref Tolosa 2012) is reported as “+VE”.
As to `CC(C)(C)OO` [tert-butyl hydroperoxide], the “In vivo DILI” value in data set [1] (in vivo) was “+VE”. For the same molecule, in the data set on HepG2 cells [2], the “Structural based (HCI), In vitro Assay” value is “+VE”.
With `CCN(CC)CCOc1ccc2c(c1)C(=O)c1cc(OCCN(CC)CC)ccc1-2` [tilorone], in [1] (setting [12]), the “In vivo DILI” value is recorded as “+VE”. In addition, in the data set with HepG2 cells [2] (HepG2 HCI, ref Tolosa 2012), the “Structural based (HCI), In vitro Assay” value is on record as “+VE”.
Turning to `CC(c1cc2ccccc2s1)N(O)C(N)=O` (stereo not shown) [zileuton], the “Structural based (HCI)” value in the data set with human hepatocytes, in the data set with HepG2 cells [5] and in the data set with HepG2 cells [6] was “+VE” each time. Further, the “hLiMTs ATP <20 x Cmax” value in the data set on PHH spheroids is recorded as “-VE”. Further, the Cluser analysis result with HepG2 cells [6] is listed as “-VE”. Moreover, in [7], the “Cluster 1-6 +VE Assay” value is “-VE”. Further, the “DILI +VE (5-8), DILI -VE (-4)” value in data set [3] is “+VE”. For the same molecule, the DILI severity category entry in data set [3] is listed as “vMost-DILI-Concern”. Further, the “DILI Score (FDA) (1-8)” value in [8] is 5. Also, the “In vivo DILI” value in data set [1] ([…]), in data set [1] (ref Dawson 2012), in [1] (ref Garside 2014), in [1] (ref Gustafsson 2014), in data set [1] (ref O'Brien 2006) and in data set [1] (ref Persson 2013) was “+VE” throughout. For the same molecule, the “In vivo DILI” value in data set [1] (ref Proctor 2017), in data set [1] (ref Vorrink 2018), in [1] (ref Williams 2019) and in data set [1] (ref Xu 2008) was “+VE” each time. In data set [9], the “Bayesian Machine Learning” value was “+VE”. The “hLiMTs ATP <100uM” value in the data set on hLiMTs is on record as “-VE”. Further, the “Inhibition of rBsep cutoff<1& cmax u>.2” value in the data set with rBsep is “-VE”. In addition, the “Inhibition of rBsep cutoff<3” value in the data set with rBsep is on record as “-VE”. In addition, the THLE-Null entry in data set [10] is on record as “-VE”. Moreover, in data set [10], the THLE-Null/3A4 entry is “-VE”. The “PHH ATP <100uM” value in the data set on PHH is recorded as “-VE”.
